Experimental data published in article PMC11219871, “Epigenetic-based differentiation therapy for Acute Myeloid Leukemia” (Nature Communications, 2024).
Where “and” joins values, the source holds several entries; their conditions need not be identical. Equal entries are not always repeated. Where two headings read alike, the source gives them in different places.

Tests used:
Assay type in all cases: cell-based, human
HL-60 = test: Cell proliferation assay: GI50
Method in brief: (§1)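 Suspension cells at 1 × 10^6 cells/mL were treated in triplicate, then incubated 1–3 h with MTS reagent (CellTiter 96 AQueous One) for colorimetric viable-cell read-out. After medium-only background subtraction, absorbance was expressed as % of untreated cells, and GI50 was fitted by non-linear regression.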

MOLM-13 = test: Cell proliferation assay: GI50
Method in brief: as §1

ML-2 [1] = test: Cell proliferation assay: GI50
Method in brief: as §1

MV4-11 = test: Cell proliferation assay: GI50
Method in brief: as §1

ML-2 [2] = test: Acetylome analysis (Acetyl-K enrichment, LC-MS/MS); conditions: for Acetyl-K sites regulated, Number, Histone proteins / Acetyl-K sites regulated, Number, Non-histone proteins / Acetyl-K sites regulated, Percentages, Histone proteins / Acetyl-K sites regulated, Percentages, Non-histone proteins: Fig 4G; for Acetyl-K sites: Down-regulated, % / Acetyl-K sites: Down-regulated, Number / Acetyl-K sites: Non-regulated, % / Acetyl-K sites: Non-regulated, Number / Acetyl-K sites: Quantified (total number) / Acetyl-K sites: Regulated, % / Acetyl-K sites: Regulated, Number / Acetyl-K sites: Up-regulated, % / Acetyl-K sites: Up-regulated, Number: ML-2 (Fig 4C); for Acetyl-K sites, Down-regulated / Acetyl-K sites, Up-regulated: Fig. 4C; for regulated Acetyl-K sites in Histone proteins / regulated Acetyl-K sites in Non-histone proteins: Fig. 4G; for percentage of Acetyl-K sites regulated: of 3618 quantified; for Number of proteins with 1 Acetyl-K site per protein / Number of proteins with 2 Acetyl-K sites per protein / Number of proteins with 3 Acetyl-K sites per protein / Number of proteins with 4 Acetyl-K sites per protein: distribution of acetylated sites in the acetylated proteins (Fig 4D)
Protocol: Cellular pellets were lysed for 15 min at 95 °C in 4% SDS, 100 mM Hepes/NaOH pH 8.0, containing 5 mM sodium butyrate and 5 mM Nicotinamide. After cooling down, lysates were incubated at 25 °C with 10 units of DNAse (Benzonase, Merk) and sonicated for 15 min in a Bioruptor for DNA shearing. Protein concentration was determined using microBCA, using BSA as standard. Samples were digested using on-bead protein aggregation capture (PAC) with ReSyn Biosciences MagReSyn® Hydoxyl microparticles (ratio Protein/Beads 1:5) in an automated King Fisher instrument (Thermo). Proteins were digested for 16 h at 37 C with LysC/Trypsin mix at a protein: enzyme ratio of 1:100 in 50 mM TEAB pH 8.0 (Trypsin Sequence grade, Sigma; LysC, Wako). The resulting peptides were speed-vac dried and dissolved in 100 µL of 200 mM HEPES pH 8.5.
Peptides (500 µg) were labeled with Thermo Scientific TMTpro 18plex™ Isobaric reagents for 1 h at 25 C. Reaction was quenched by adding 5% hydroxylamine for 15 min. Samples were pooled at a 1:1 ratio based on the total peptide amount, determined by comparing overall signal intensities on a regular LC-MS/MS run. The final mixture was desalted using a 500 mg Sep-Pak C18t cartridge (Waters) and dried prior to high pH reverse phase HPLC pre-fractionation.
Labeled peptides were fractionated offline through a high pH reverse phase chromatography using an Ultimate 3000 HPLC system equipped with a sample collector. Briefly, peptides were dissolved in 1200 µL of Buffer A (10 mM NH4OH) and loaded onto a XBridge BEH130 C18 column (3.5 µm, 250 mm length and 3.5 mm ID, Waters). Buffer B was composed of 10 mM NH4OH in 90% CH3CN. The following gradient was used at a flow rate of 500 µL/min: 0-50 min 0-25% B, 50-56 min 25-60% B, 56-57 min 60-90% B. One-minute fractions (500 µL) from […] were collected and neutralized with 10% formic acid. Based on the UV absorbance at 280 nm, 95% of the volume of 40 fractions was pooled in 5 fractions for Acetyl-Lysine enrichment. The 5% of these fractions was kept for proteome analysis. Pooled fractions were snap-frozen and lyophilized.
Lyophilized peptides (1.5 mg) from each pool were immuno-affinity purified with the PTMScan HS Acetyl-Lysine Motif (Ac−K) kit (Cell Signaling Technology). For each pool, three consecutive immuno-purifications (IPs) were performed using the manufacturer’s protocol in an automated King Fisher instrument (Thermo). Elution of purified peptides was performed in two consecutive steps of 50 μl of 0.15% TFA. Samples were desalted with C18 stage tips and eluates were vacuum dried and resuspended in 0.1% formic acid for subsequent analysis by LC−MS/MS.
LC-MS/MS was done by coupling an UltiMate 3000 RSLCnano LC system to an Orbitrap Exploris 480 mass spectrometer (Thermo Fisher Scientific). Samples were loaded into a trap column (Acclaim™ PepMap™ 100 C18 LC Columns 5 µm, 20 mm length) for 3 min at a flow rate of 10 µL/min in 0.1% FA. Peptides were then transferred to an EASY-Spray PepMap RSLC C18 column (Thermo) (2 µm, 75 µm x 50 cm) operated at 45 °C and separated using a 90 min effective gradient (buffer A: 0.1% FA; buffer B: 100% ACN, 0.1% FA) at a flow rate of 250 nL/min. The gradient used was, from 4% to 6% of buffer B the first 2 min, from 6% to 33% B the next 58 min, plus 10 additional minutes at 98% B.
The mass spectrometer was operated in a data-dependent mode, with an automatic switch between MS and MS/MS scans using a top 15 method. (Intensity threshold ≥ 1e4, dynamic exclusion of 20 sec and excluding charges unassigned, +1 and ≥ +7). MS spectra were acquired from 350 to 1500 m/z with a resolution of 60,000 FMHW (200 m/z). Ion peptides were isolated using a 0.7 Th window and fragmented using higher-energy collisional dissociation (HCD) with a normalized collision energy NCE of 36. MS/MS spectra were acquired with a fixed first mass of 120 m/z and a resolution of 45,000 FMHW (200 m/z). […]

[3] = HL-60, replicates 1-3, read-out: GI50
[4] = Homo sapiens, HL-60, 48 h, 48 h, read-out: HL-60 GI50
[5] = Homo sapiens, HL-60, HL-60, replicates 1-3, read-out: GI50
[6] = Homo sapiens, MOLM-13, MOLM-13, replicates 1-3
[7] = Homo sapiens, ML-2, ML-2, replicates 1-3
[8] = ML-2, first (superseded) acetylome experiment, peer review file
[9] = Homo sapiens, MV4-11, MV4-11, replicates 1-3

SMILES	GI50 (HL-60; [3])	GI50 (HL-60; [4])	GI50 (HL-60; [5])	GI50 (MOLM-13; Homo sapiens, MOLM-13, 48 h)	GI50 (MOLM-13; [6])	GI50 (MOLM-13; MOLM-13, replicates 1-3)	GI50 (ML-2 [1]; Homo sapiens, ML-2, 48 h)	GI50 (ML-2 [1]; [7])	GI50 (ML-2 [1]; ML-2, replicates 1-3)	GI50 (MV4-11; Homo sapiens, MV4-11, 48 h)	GI50 (MV4-11; MV4-11, replicates 1-3)	Number of proteins with >5 Acetyl-K sites per protein (ML-2 [2])	Acetyl-K sites regulated, Number, Histone proteins (ML-2 [2])	Acetyl-K sites regulated, Number, Non-histone proteins (ML-2 [2])	Acetyl-K sites regulated, Percentages, Histone proteins (ML-2 [2])	Acetyl-K sites regulated, Percentages, Non-histone proteins (ML-2 [2])	Acetyl-K sites: Down-regulated, % (ML-2 [2])	Acetyl-K sites: Down-regulated, Number (ML-2 [2])	Acetyl-K sites: Non-regulated, % (ML-2 [2])	Acetyl-K sites: Non-regulated, Number (ML-2 [2])	further results
COc1cc2nc(-c3cc(C)oc3C)cc(NCC3CCN(c4ncc(C(=O)NO)cn4)CC3)c2cc1OC [CM-1758, 2-[4-[[[2-(2,5-dimethyl-3-furyl)-6,7-dimethoxy-4-quinolyl]amino]methyl] -1-piperidyl]pyrimidine-5-carbohydroxamic acid]	1020 nM and 1180 nM	1190 nM	1360 nM	558 nM	412 nM	685 nM and 576 nM	844 nM	869 nM	812 nM and 849 nM	292 nM	498 nM and 125 nM and 252 nM	14	55	681	7.5	92.5	10.9%	395	79.7%	2882	Acetyl-K sites: Quantified (total number) (ML-2 [2]): 3618; Acetyl-K sites: Regulated, % (ML-2 [2]): 20.3%; Acetyl-K sites: Regulated, Number (ML-2 [2]): 736; Acetyl-K sites: Up-regulated, % (ML-2 [2]): 9.4%; Acetyl-K sites: Up-regulated, Number (ML-2 [2]): 341; fraction of regulated acetylation sites upregulated (ML-2 [2]; ML-2, 25% GI50, 12 h): 46.3%; Acetyl-K sites, Down-regulated (ML-2 [2]; ML-2, 25% GI50, 12 h): 395; Acetyl-K sites, Up-regulated (ML-2 [2]; ML-2, 25% GI50, 12 h): 341; regulated Acetyl-K sites in Histone proteins (ML-2 [2]; ML-2, 25% GI50, 12 h): 55; regulated Acetyl-K sites in Non-histone proteins (ML-2 [2]; ML-2, 25% GI50, 12 h): 681; percentage of Acetyl-K sites regulated (ML-2 [2]; ML-2, 25% GI50, 12 h): 20.3%; acetyl K-sites regulated specifically by the compound (ML-2 [2]; [8]): 80; fraction of regulated acetylation sites upregulated (ML-2 [2]; [8]): 61.2%; Number of proteins with 1 Acetyl-K site per protein (ML-2 [2]): 381; Number of proteins with 2 Acetyl-K sites per protein (ML-2 [2]): 73; Number of proteins with 3 Acetyl-K sites per protein (ML-2 [2]): 31; Number of proteins with 4 Acetyl-K sites per protein (ML-2 [2]): 6
COc1cc2nc(-c3ccc(C)o3)cc(NCC3CCN(c4ncc(C(=O)NO)cn4)CC3)c2cc1OC [CM-444, 2-[4-[[[6,7-dimethoxy-2-(5-methyl-2-furyl)-4-quinolyl]amino]methyl]-1-piperidyl]pyrimidine-5-carbohydroxamic acid]	987 nM and 1020 nM	1090 nM	1260 nM		1370 nM	1120 nM and 883 nM		988 nM	1150 nM and 956 nM	621 nM	765 nM and 641 nM	14	58	766	7	93	11.9%	429	77.2%	2794	GI50 (MV4-11; [9]): 458 nM; Acetyl-K sites: Quantified (total number) (ML-2 [2]): 3618; Acetyl-K sites: Regulated, % (ML-2 [2]): 22.8%; Acetyl-K sites: Regulated, Number (ML-2 [2]): 824; Acetyl-K sites: Up-regulated, % (ML-2 [2]): 10.9%; Acetyl-K sites: Up-regulated, Number (ML-2 [2]): 395; fraction of regulated acetylation sites upregulated (ML-2 [2]; ML-2, 25% GI50, 12 h): 47.9%; Acetyl-K sites, Down-regulated (ML-2 [2]; ML-2, 25% GI50, 12 h): 429; Acetyl-K sites, Up-regulated (ML-2 [2]; ML-2, 25% GI50, 12 h): 395; regulated Acetyl-K sites in Histone proteins (ML-2 [2]; ML-2, 25% GI50, 12 h): 58; regulated Acetyl-K sites in Non-histone proteins (ML-2 [2]; ML-2, 25% GI50, 12 h): 766; percentage of Acetyl-K sites regulated (ML-2 [2]; ML-2, 25% GI50, 12 h): 22.8%; acetyl K-sites regulated specifically by the compound (ML-2 [2]; [8]): 202; fraction of regulated acetylation sites upregulated (ML-2 [2]; [8]): 49.7%; Number of proteins with 1 Acetyl-K site per protein (ML-2 [2]): 421; Number of proteins with 2 Acetyl-K sites per protein (ML-2 [2]): 79; Number of proteins with 3 Acetyl-K sites per protein (ML-2 [2]): 29; Number of proteins with 4 Acetyl-K sites per protein (ML-2 [2]): 14
CC1=C(/C=C/C(C)=C/C=C/C(C)=C/C(=O)O)C(C)(C)CCC1 [ATRA, all-trans retinoic acid, reference compound]	> 10000 nM		> 10000 nM	> 10000 nM	> 10000 nM	> 10000 nM	> 10000 nM	> 10000 nM	> 10000 nM	> 10000 nM	> 10000 nM										GI50 (HL-60; Homo sapiens, HL-60, 48 h, read-out: GI50): > 10000 nM; GI50 (MV4-11; [9]): > 10000 nM
